Data set [1] concerns C8166 cells. The data set is described as follows: Protective experiment: survival rate of normal cells (MTT). Type of data set: cell-based. The following applies: normal C8166 cells in protective experiment, three days.
Procedure: 50 µl medium was added into half of the holes on the culture plate and 50 µl diluted supernatant fluid of HIV-1, in which the value of M.O.I was 0.0089, was added into the other half of the holes on the culture plate. At the same time, the blank control holes without the drug (the negative control) were set and the control culture holes with positive drug AZT (the positive control) were set too. They were put into 5% CO2 incubator under 37 °C for three days. The survival rate of cells was determined by MTT method. […] The following formulae were used to calculate the survival rate of normal cells caused by the drug and the protective rate of the drug for HIV-1-infected cells. Survival rate of normal cells(%)=OD value of the experimental hole/OD value of negative control hole□100% Protective rate of infected cells(%)=(OD value of the experimental hole−OD value of positive control hole)/(OD value of negative control hole−OD value of positive control hole)□100%
Data set [2] deals with C8166 cells. The data set is described as follows: Cytotoxic effect on C8166 cells (MTT). Type of data set: cell-based. The following applies: three days, one value per date of experiment.

For `Cc1cn([C@H]2C[C@H](N=[N+]=[N-])[C@@H](CO)O2)c(=O)[nH]c1=O` [AZT], the TC50 in the data set with C8166 cells [1] and in the data set with C8166 cells [2] was more than 50 µg/mL throughout.

(Values after patent US20070253980A1, “New pharmaceutical composition from natural materials for regulating immunity, its preparation method and use” (priority 2006, published 2007).)
